What all share (experiment): Ba/F3 KRAS-mutant cell proliferation inhibition (CellCounting-Lite 2.0)
What all share (assay type): cell-based

One assay has as its system Ba/F3-KRAS-G12C-H95R. Conditions: Mus musculus, BaF3, Ba/F3-KRAS-G12C-H95R (KC-2618), 72 h. An excerpt:
(§1) This experiment evaluated the proliferation inhibitory activity of the compounds of the present invention against Ba/F3-KRAS mutant cell lines by using the CellCounting-Lite®2.0 method.
(§2) The following materials, reagents, and instruments were used in this experiment: Cells were all obtained from Kangyuan Bochuang Biotechnology (Beijing) Co., Ltd. RPMI-1640 (Hyclone, SH30809.01); fetal bovine serum (FBS) was used. (GIBCO, 10099-141); Phosphate-buffered saline (PBS) (Solarbio, P1020-500); CellCounting-Lite 2.0 Luminescent Cell Viability Assay (Vazyme, DD1101-02); 96-well plate (Absin, abs7016); Multifunctional microplate reader (BMG LABTECH, CLARIOstar® Plus); CO2 incubator (Thermo Scientific, Model 3100 Series).
(§3) All cell lines were cultured in complete medium at 37°C and 5% CO2. Cells in the logarithmic growth phase were harvested and counted using a platelet counter. Cell viability was assessed using the trypan blue exclusion method to ensure a viability of over 90%. Cell density was adjusted using complete medium (RPMI 1640+10% FBS) and then seeded into 96-well cell culture plates at 90 µL per well, for a total of 3000 cells. The cells in the 96-well plates were cultured at 37°C and 5% CO2. A 10-fold drug solution was prepared using complete medium, and then 10 µL of each serially diluted compound was transferred to the corresponding wells of the 96-well cell culture plate, with two replicates for each drug concentration. The cells in the drug-treated 96-well plates were cultured at 37°C and 5% CO2 for 72 h, followed by CellCounting-Lite 2.0 analysis.
(§4) The CellCounting-Lite 2.0 Luminescent Cell Viability Assay reagent was thawed and the cell plate was equilibrated to room temperature for 30 minutes. An equal volume of CellCounting-Lite 2.0 Luminescent Cell Viability Assay solution was added to each well and the plate was shaken on an orbital shaker for 5 minutes to lyse the cells. The cell plate was placed at room temperature for 20 minutes to stabilize the cryo-luminescence signal. The cryo-luminescence values were read and the data were collected.
(§5) Data was analyzed using GraphPad Prism 7.0 software. A nonlinear S-curve regression was used to fit the data to derive the dose-response curve, and the IC50 value was calculated from this curve. [formula]

The test system of a further assay is Ba/F3-KRAS-G12C-Y96S. Conditions: Mus musculus, BaF3, Ba/F3-KRAS-G12C-Y96S (KC-2619), 72 h.
Source text: as §1, §2, §3, §4, §5

The subject of the next assay is Ba/F3-KRAS-G12C-R68M. Conditions: Mus musculus, BaF3, Ba/F3-KRAS-G12C-R68M (KC-2604), 72 h.
Source text: as §1, §2, §3, §4, §5

For a further assay, the system named is Ba/F3-KRAS-G12S. Conditions: Mus musculus, BaF3, Ba/F3-KRAS-G12S (KC-2894), 72 h.
Source text: as §1, §2, §3, §4, §5

The subject of another assay is Ba/F3-KRAS-G12C-Q99L. Conditions: Mus musculus, BaF3, Ba/F3-KRAS-G12C-Q99L (KC-2611), 72 h.
Source text: as §1, §2, §3, §4, §5

Another assay concerns Ba/F3-KRAS-G 12V. The settings on record: Mus musculus, BaF3, Ba/F3-KRAS-G 12V (KC-1261), 72 h.
Source text: as §1, §2, §3, §4, §5

The next assay deals with Ba/F3-KRAS-Q61H. The settings on record: Mus musculus, BaF3, Ba/F3-KRAS-Q61H (KC-2620), 72 h.
Source text: as §1, §2, §3, §4, §5

For the next assay, the system named is Ba/F3-KRAS-G12C-H95L. Conditions: Mus musculus, BaF3, Ba/F3-KRAS-G12C-H95L (KC-3683), 72 h.
Source text: as §1, §2, §3, §4, §5

The test system of a further assay is Ba/F3-KRAS-G12R. Conditions: Mus musculus, BaF3, Ba/F3-KRAS-G12R (KC-2026), 72 h.
Source text: as §1, §2, §3, §4, §5

A further assay deals with Ba/F3-KRAS-G12C-A59T. The settings on record: Mus musculus, BaF3, Ba/F3-KRAS-G12C-A59T (KC-2610), 72 h.
Source text: as §1, §2, §3, §4, §5

The subject of another assay is Ba/F3-KRAS-G12D. The settings on record: Mus musculus, BaF3, Ba/F3-KRAS-G12D (KC-1259), 72 h.
Source text: as §1, §2, §3, §4, §5

Where [1] appears, read: 0.05uM, read-out: Inhibition rate% @0.05uM.
[2] abbreviates: 1uM, read-out: Inhibition rate% @1uM.

Take `CCN1CC/C(=C\F)[C@](C)(COc2nc(N3Cc4c(COC)c(C(=O)N(C)C)nn4CC[C@@H]3C)c3cc(Cl)c(-c4c(F)ccc5sc(N)c(C#N)c45)c(F)c3n2)C1` (single isomer, unassigned) [Example 228A]: the inhibition at 0.05 µM in the assay on Ba/F3-KRAS-G12C-H95R (setting [1]) came out at 71.9%; in the assay with Ba/F3-KRAS-G12C-Y96S (setting [1]), 45.4%; with Ba/F3-KRAS-G12C-R68M (setting [1]), 91.6%; with Ba/F3-KRAS-G12S (setting [1]) it was 96.4%; in the assay on Ba/F3-KRAS-G12C-Q99L (setting [1]), 93.9%; with Ba/F3-KRAS-G 12V (setting [1]), 99.9%. The inhibition at 0.05 µM with Ba/F3-KRAS-Q61H (setting [1]) came out at 99.1%; in the assay with Ba/F3-KRAS-G12C-H95L (setting [1]) it was 99.7%; in the assay on Ba/F3-KRAS-G12R (setting [1]) it was 85.7%; in the assay with Ba/F3-KRAS-G12C-A59T (setting [1]), 79.8%; in the assay with Ba/F3-KRAS-G12D (setting [1]) it was 99.5%. The inhibition at 1 µM in the assay with Ba/F3-KRAS-G12C-H95R (setting [2]) was determined as 98.6%; with Ba/F3-KRAS-G12C-Y96S (setting [2]) it was 74.9%; in the assay on Ba/F3-KRAS-G12C-R68M (setting [2]), 96.6%; in the assay on Ba/F3-KRAS-G12S (setting [2]), 98.8%; in the assay with Ba/F3-KRAS-G12C-Q99L (setting [2]), 98.1%; in the assay on Ba/F3-KRAS-G 12V (setting [2]), 100%. For the same molecule, the inhibition at 1 µM with Ba/F3-KRAS-Q61H (setting [2]) was 99.6%; in the assay with Ba/F3-KRAS-G12C-H95L (setting [2]), 100%; in the assay on Ba/F3-KRAS-G12R (setting [2]), 97.6%; in the assay on Ba/F3-KRAS-G12C-A59T (setting [2]), 95.1%; with Ba/F3-KRAS-G12D (setting [2]) it was 99.8%.
